These results are taken from PubChem BioAssay AID1996.

By kinetic solubility is commonly meant the concentration staying in solution when a stock, usually in DMSO, is diluted into the medium.

≈ marks a conversion by molar mass, not a printed value. Where only a bound is given, the exact number is not on record here.

The conditions of the series: buffer; pH 7.4; 200.0 µM.
Consider `Cc1cnc(C(=O)OCC(=O)N(Cc2ccccc2)C(C)(C)C)cn1`, for which the kinetic solubility is above 51.2 µg/mL.

In the case of `COc1cccc(OC)c1C(=O)O/N=C(\N)c1ccncc1`, the solubility (kinetic) was 42.2 µg/mL (≈ 140 µM).

Compound `O=C(CCCSc1ccccc1)Nc1cccc(CO)c1` returned a kinetic solubility above 45.2 µg/mL. On to `Cc1nc2ccccc2nc1OCc1cccc([N+](=O)[O-])c1`, for which the kinetic solubility worked out at 2 µg/mL (≈ 6.77 µM). The compound `COc1ccc(C(=O)NCCCn2ccnc2)cc1[N+](=O)[O-]` had a kinetic solubility above 45.6 µg/mL.

Compound `COc1ccc(C(CNC(=O)c2cc(C)on2)N(C)C)cc1` (stereo not given) gave a solubility (kinetic) of 45.3 µg/mL (≈ 149 µM). Then `Cc1cccc(C)c1N1C(=O)CC(N2CCN(S(=O)(=O)c3ccccc3F)CC2)C1=O` (stereo not given), with 50.7 µg/mL (≈ 114 µM); and `Cn1c(SCc2ccccc2)nc(N)c(N=O)c1=O`, with 13.6 µg/mL (≈ 49.2 µM); and `COc1ccccc1N(C)S(=O)(=O)c1ccc(C(=O)Nc2cccc(Br)c2)cc1`, with 3 µg/mL (≈ 6.31 µM). Compound `Cc1cc(C)cc(OCC(=O)Nc2ccc(CN3CCCCC3)cc2)c1` returned a solubility (kinetic) of 49.9 µg/mL (≈ 142 µM). In turn, `Cl.NC(Cc1ccccc1)c1nc2ccccc2[nH]1` (stereo not given) gave a kinetic solubility of 40.3 µg/mL. Then `CC(C)[C@H](Nc1ncnc2c1oc1ccccc12)C(=O)O`, with above 42.8 µg/mL. `CC(=O)N1C(C(=O)O)Cc2c([nH]c3ccccc23)C1C` (stereo not given) came in with a kinetic solubility above 40.8 µg/mL. `COc1ccc2nc(Nc3ccccc3OC)sc2c1` had a solubility (kinetic) of 3.8 µg/mL (≈ 13.3 µM).

For `O=S(=O)(Nc1cccc(CCc2ccccn2)c1)c1cc(Cl)ccc1Cl`, the solubility (kinetic) turned out to be 9.2 µg/mL (≈ 22.6 µM). For `O=Cc1cn(CC(=O)N2CCc3ccccc32)c2ccccc12` the value was 0.4 µg/mL (≈ 1.31 µM); for `Cc1csc(NC(=O)CCNC(=O)c2ccccc2Cl)n1`, 43.9 µg/mL (≈ 136 µM); for `CCOC(=O)c1nsnc1NCCCl`, 22.7 µg/mL (≈ 96.3 µM). Then `C/C(=N\O)c1ccn(S(=O)(=O)c2ccc(Cl)cc2)c1`, with 8.4 µg/mL (≈ 28.1 µM). `C/C(=N\NC=O)c1ccncc1` registered a solubility (kinetic) above 24.5 µg/mL.

With `CCN1CCN(C(=O)Cc2ccc(C)cc2)CC1`, the solubility (kinetic) was above 37 µg/mL.

As to `CCC(C)NC(=O)Cn1c(=O)sc2ccccc21` (stereo not given), the solubility (kinetic) is 33.6 µg/mL (≈ 127 µM). For `CC1CCCC(C)N1C(=O)COC(=O)/C=C/c1ccco1` (stereo not given) the value was 10 µg/mL (≈ 34.3 µM); for `O=C(CSc1nnc(C2CC2)n1-c1ccccc1)NC1CCS(=O)(=O)C1` (stereo not given), above 58.9 µg/mL.

`O=C1Nc2ccccc2C1=Nc1ccc(Cl)cc1` returned a kinetic solubility of 13.5 µg/mL (≈ 52.6 µM). For the compound `O=C1COc2ccc(S(=O)(=O)N3CCCC3)cc2N1`, the kinetic solubility was above 42.3 µg/mL.

For the compound `COc1ccc(OC)c(/C=C/C(=O)NC2=NCCS2)c1`, the solubility (kinetic) was found to be 4 µg/mL (≈ 13.7 µM).

The compound `CC1CCCN(C(=O)COC(=O)COc2ccc(C#N)cc2)C1` (stereo not given) showed a kinetic solubility above 47.5 µg/mL.

`COc1ccc(Cl)cc1NC(=O)NCc1ccc2c(c1)OCO2` had a kinetic solubility below 0.4 µg/mL. Then `Cc1ccc(S(=O)(=O)Nc2ncnc3ccccc23)cc1`, with above 44.9 µg/mL; and `Fc1ccc(CNC(=S)NCc2cccc(Cl)c2)cc1`, with 27.2 µg/mL (≈ 88.1 µM). For `CC(C)(C)NC(=O)NC(=O)CN1CCN(c2ccccc2)CC1` the value was above 47.8 µg/mL.

Consider `O=C(Nc1ccccn1)c1sc2cccc(F)c2c1Cl`, for which the kinetic solubility was below 0.3 µg/mL. For `Cc1ccc2nsnc2c1NC(=O)Cc1ccc(Cl)cc1` the value was 0.7 µg/mL (≈ 2.2 µM); for `Cc1ccc(NC(=O)CSc2ccc3c(c2)OCCO3)c(O)c1`, 36.9 µg/mL (≈ 111 µM); for `CC(=O)N1c2ccccc2-c2nc3ccccc3n2C1C` (stereo not given), above 41.6 µg/mL. For `Cc1cccc(NC(=O)Nc2c(C)[nH]c(=O)[nH]c2=O)c1C` the value was 5.2 µg/mL (≈ 18 µM); for `COc1ccc(NC(=O)CN(C)C(=O)CC2CCCCC2)cc1`, above 47.8 µg/mL.

Compound `CCN(C(=O)CSc1ccccn1)C1CCCCC1` displayed a solubility (kinetic) above 41.8 µg/mL. For `Cc1ccc(NS(=O)(=O)c2ccc(-c3csc(C)n3)s2)c(C)c1` the value was below 0.4 µg/mL; for `O=C(Nc1c(Cl)ccc2nsnc12)c1ccc([N+](=O)[O-])o1`, above 48.7 µg/mL; for `O=[N+]([O-])c1cccc(CN2CCC(Cc3ccccc3)CC2)c1`, 17.3 µg/mL (≈ 55.7 µM). `CCc1nc(N[C@H](C(=O)O)C(C)C)c2oc3ccccc3c2n1` came in with a kinetic solubility above 47 µg/mL. The compound `c1ccc(CNc2ncnc3sc4c(c23)CCCC4)nc1` registered a kinetic solubility of 6.7 µg/mL (≈ 22.6 µM).

`O=C(CCCN1C(=O)C2CC=CCC2C1=O)Nc1ccccc1F` (stereo not given) came in with a solubility (kinetic) above 49.6 µg/mL. Compound `Fc1cccc(Cl)c1/C=C/c1cnc2ccccc2n1` gave a solubility (kinetic) below 0.3 µg/mL. For `CC1CCN(CCC(=O)Nc2ccc(F)c(F)c2)CC1` the value was above 42.3 µg/mL; for `CC1CC=C(c2ccccc2)C(=S)N1` (stereo not given), above 30.5 µg/mL; for `Cc1ccsc1C(=O)C1CCCN(Cc2ccc(O)cc2)C1` (stereo not given), 36.8 µg/mL (≈ 117 µM). For `CC(c1ccccc1)N1CCc2[nH]c(=S)[nH]c(=O)c2C1` (stereo not given) the value was 19.9 µg/mL (≈ 69.2 µM). Then `CCCNC(=O)c1ccc2c(c1)ncn2-c1cc(C)cc(C)c1`, with 38.4 µg/mL (≈ 125 µM). On to `Cn1c(N)c(C(=O)COC(=O)CNC(=O)c2ccccc2)c(=O)n(C)c1=O`, for which the kinetic solubility is above 56.2 µg/mL. For `Cc1cccc(NC(=S)N(C)C)c1C` the value was above 31.2 µg/mL; for `CC1CC1C(=O)OCC(=O)c1c(N)n(C)c(=O)n(C)c1=O` (stereo not given), above 44.3 µg/mL.

On to `Cl.O=C(CNCc1ccccc1)NC1C2CC3CC(C2)CC1C3` (stereo not given), for which the kinetic solubility turned out to be 50.2 µg/mL.

As to `CC(C)(C)NC(=O)C1CCN(C(=O)c2ccco2)CC1`, the solubility (kinetic) was 41.2 µg/mL (≈ 148 µM).

Consider `S=C(NCc1ccccc1)Nc1ccc2ccccc2c1`, for which the solubility (kinetic) turned out to be 0.9 µg/mL (≈ 3.08 µM). For `O=C(CNC(=O)c1ccccc1F)OCC(=O)c1c[nH]c2ccccc12` the value was 43 µg/mL (≈ 121 µM); for `O=[N+]([O-])c1ccc(-c2ccc(S(=O)(=O)N3CCOCC3)cc2)cc1`, below 0.4 µg/mL.

`CCc1cc(C(=O)c2ccc(OC)cc2)c(NC(=O)CN2CCCCC2)s1` came in with a solubility (kinetic) below 0.4 µg/mL.

In turn, `O=C(COC(=O)c1cccc([N+](=O)[O-])c1)NCc1cccs1` had a solubility (kinetic) of 36 µg/mL (≈ 112 µM). Then `COC(=O)c1c(C)nc(C)c(C(=O)OC)c1-c1cccs1`, with above 45.8 µg/mL. For `COc1ccc(COc2cccc3ccc(C)nc23)cc1F` the value was 5.2 µg/mL (≈ 17.5 µM); for `O=C(/C=C/c1ccccc1[N+](=O)[O-])Nc1cccc(S(=O)(=O)NC2=NCCCCC2)c1`, 14.4 µg/mL (≈ 32.5 µM); for `Cc1ccc2[nH]cc(CCNC(=O)/C=C/c3ccco3)c2c1`, 36.9 µg/mL (≈ 125 µM). For `CCC(C)c1ccc(S(=O)(=O)N2CCN3CCCC3C2)cc1` (stereo not given) the value was 34.1 µg/mL (≈ 106 µM); for `Cc1ccc(S(=O)(=O)Oc2ccccc2/C=C2/SC(=O)NC2=O)cc1`, 52.7 µg/mL (≈ 140 µM); for `CCOP(=O)(c1ccccc1)C1(C#N)CC1` (stereo not given), 23 µg/mL (≈ 97.8 µM). Compound `CCOc1cc(C(=S)N2CCCC2)ccc1O` yielded a kinetic solubility above 37.7 µg/mL. For `OC(COc1ccccc1)CN1CCCC1` (stereo not given) the value was above 33.2 µg/mL; for `O=C(CN1CCc2ccccc2C1)Nc1ccccc1Cl`, 8.7 µg/mL (≈ 28.9 µM). `O=C(CN1C(=O)C2CCCCC2C1=O)Nc1nccs1` (stereo not given) had a kinetic solubility above 44 µg/mL. In turn, `CC(C)Oc1ccccc1/C=N/NC(=O)C1CC1` registered a solubility (kinetic) above 36.9 µg/mL. `O=C(COC(=O)c1cc([N+](=O)[O-])ccc1NCCO)Nc1cccnc1Cl` gave a kinetic solubility of 9.1 µg/mL (≈ 23.1 µM).

Consider `COc1cccc(NC(=S)N2CCc3cc(OC)c(OC)cc3C2)c1`, for which the solubility (kinetic) stood at 4.9 µg/mL (≈ 13.7 µM). For `Cc1ccc(C(=O)Nc2ccncc2)c(C)c1` the value was above 33.9 µg/mL; for `CN(C)/C=C/C(=O)C(F)(F)F`, 17.9 µg/mL (≈ 107 µM); for `Cc1ccc(C(=O)O)c(C(=O)Nc2nc3ccccc3s2)c1`, above 46.9 µg/mL. For `O=C(O)c1nccnc1C(=O)Nc1ccccc1-c1ccccc1` the value was above 47.9 µg/mL. Then `CCNC(=S)Nc1ccc2ncoc2c1`, with above 33.2 µg/mL. For the compound `COc1ccc(CN2C(=O)COc3ccccc32)cc1`, the solubility (kinetic) turned out to be 34.1 µg/mL (≈ 127 µM).

`COc1ccc(CNC(=O)N2CCN(c3ccccc3)CC2)cc1` had a kinetic solubility of 3.5 µg/mL (≈ 10.8 µM).

On to `O=C(NCc1ccc(F)cc1)c1ccc[nH]1`, for which the kinetic solubility was above 32.7 µg/mL. As for `Cc1ccc(S(=O)(=O)N2CCCCCC2)cc1C(=O)NCc1ccccn1`, the solubility (kinetic) came to 55.7 µg/mL (≈ 144 µM). In turn, `CCCCN(CC)C(=O)c1cc2c(=O)n3cccc(C)c3nc2s1` yielded a kinetic solubility of 44.5 µg/mL (≈ 130 µM).

In turn, `Cc1c(C(=O)C(=O)N2c3ccccc3CC2C)c2ccccc2n1C` (stereo not given) returned a kinetic solubility of 1.6 µg/mL (≈ 4.81 µM). Then `COc1ccc(N(CCC#N)C(=O)/C(C#N)=C\c2cccs2)cc1`, with above 50.6 µg/mL; and `O=C(/C=C/c1cccc(Cl)c1)NCc1ccccc1`, with 3.4 µg/mL (≈ 12.5 µM).

As for `C=CCOc1ccccc1CN1CCCCCC1`, the kinetic solubility turned out to be 28.7 µg/mL (≈ 117 µM).

Take `CCS(=O)(=O)N1CCC(c2nc3ccccc3[nH]2)CC1`: the solubility (kinetic) was determined as 40 µg/mL (≈ 136 µM). Then `CS(=O)(=O)N(CC(=O)N1CCCC1)Cc1ccccc1`, with above 44.5 µg/mL. `O=C(CN1C(=O)c2ccc([N+](=O)[O-])cc2C1=O)Nc1nccs1` displayed a kinetic solubility of 26.2 µg/mL (≈ 78.8 µM).

For the compound `CC1(C(=O)NCC2CCCO2)Oc2cccnc2NC1=O` (stereo not given), the kinetic solubility was above 43.7 µg/mL.

The compound `O=C(CCSc1ccc(Cl)cc1)NCc1ccccn1` had a solubility (kinetic) of 40.8 µg/mL (≈ 133 µM). `CC(=O)Nc1ccc(NC(=O)CCc2ccc(C)o2)cc1` gave a kinetic solubility above 42.9 µg/mL. Then `O=C(Nc1ccccc1)c1ccccc1C(=O)N1CCCCC1`, with 42.6 µg/mL (≈ 138 µM); and `Cc1c(C)n(Cc2ccccc2)c2ccc(C(=O)O)cc12`, with above 41.9 µg/mL; and `COC(=O)CSc1nc(C)cc(C)n1`, with above 31.8 µg/mL. For `CC(=O)N1CCN(C(=O)c2cccc(S(=O)(=O)N3c4ccccc4CC3C)c2)CC1` (stereo not given) the value was above 64.1 µg/mL; for `O=C(NC(=S)NCCCN1CCOCC1)c1ccco1`, above 44.6 µg/mL.

The compound `Cc1cc(SCC(=O)NCC2CCCO2)nc2ccccc12` (stereo not given) displayed a solubility (kinetic) above 47.5 µg/mL. Then `O=C(O)c1ccccc1C(=O)NC1CCCc2ccccc21` (stereo not given), with above 44.3 µg/mL; and `CN(CC(O)CN1CCOCC1)S(=O)(=O)[O-].[Na+]` (stereo not given), with above 41.4 µg/mL; and `CC1CCCC(C)N1C(=O)COC(=O)c1ccc([N+](=O)[O-])o1` (stereo not given), with above 46.5 µg/mL. Then `COc1ccc(-c2noc(CCC(=O)NCc3ccco3)n2)cc1`, with 39.7 µg/mL (≈ 121 µM).
